Columns and labels:
[1] = test system: parvalbumin-positive interneurons in the somatosensory cortex; assay: Firing of parvalbumin-positive interneurons in somatosensory cortex slices, in vitro; assay type: cell-based, mouse; details: 0.5 mM, vs control slices (0.1% DMSO)
MNTB neurons = assay: High-voltage activated potassium currents in MNTB neurons, in vitro; assay type: cell-based, mouse; details: 1 mM
Protocol: Male CBA/Ca mice (aged 12-16 days) were used in these experiments (in accordance with the UK Animals Scientific Procedures Act, 1986). Brain slices containing the medial nucleus of the trapezoid body (MNTB) were prepared as described previously (Brew and Forsythe, 2005).
Chemicals and reagents were purchased from Sigma, (Poole, UK) unless otherwise noted. Reference Example RE1 was dissolved in DMSO and diluted in ACSF to the required concentration.
Recordings from identified MNTB neurons were conducted as previously described (Brew and Forsythe, 2005). Slices was placed in a superfusion chamber on an inverted microscope stage and continuously perfused with gassed (95% O2-5% CO2) ACSF at a rate of 1 ml min-1 at room temperature. Whole-cell recordings were made from visually identified MNTB neurons using an […] amplifier (Molecular Devices, Union City, Calif., USA). Patch solution comprised (in mM) potassium gluconate (97.5), KCl (32.5), Hepes (40), EGTA (5), MgCl2 (1), Na2phosphocreatin (5), pH 7.2 with KOH. Pipettes had resistances of 3-5 MΩ and series resistances were 6-10 MΩ (compensated by 70%, 10 μs lag). Access resistance was frequently monitored and the recording discarded if increases were more than 2 MΩ. […]

Kv3 channels = details: cited from earlier work

**Q.** For `CC[N+](CC)(CC)CC` [TEA, Tetraethylammonium, reference compound], which action potential half-width [1] is on record?
**A.** significantly increased

**Q.** What about the “maximal frequency of action potential firing in response to step currents” value [1] of the same molecule?
**A.** fired at a lower maximal frequency

**Q.** And the “amplitude of outward high voltage-activated potassium currents evoked by voltage steps to +40 mV” value (MNTB neurons)?
**A.** significantly reduced

**Q.** What about the “inhibition of Kv3 channels” value (Kv3 channels) of the same molecule?
**A.** inhibit the channels at low millimolar concentrations

Reference: patent publication US11197859B2 (AUTIFONY THERAPEUTICS LIMITED, priority 2010, dated 2021)
